Consider 8 compounds from ChEMBL document CHEMBL1201862, “PubChem BioAssay data set” (2004).

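Assay format: 96-well plates, 48-hour exposure. GI50 = concentration required for 50% inhibition of growth.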 Activity calls are given as the source filed them. No stated cut-off is given here; in the data, active = GI50 up to about 1.1 µM and inactive = higher.

Some test systems named below: MDA-MB-231; KM12; MCF7; ACHN; SR; DU-145; IGROV-1; UACC-62; T47D; A549; LOX IMVI; SNB-75; 786-0; NCI-H23; OVCAR-4; M14; OVCAR-5; SK-OV-3; Hs-578T; MDA-N.
Holding throughout (assay): inhibition of tumour cell growth, NCI panel, 48 h

Turning to `CSC12c3cc(C)n(-c4ccccc4)c3CC(C)(C)CN1C(=O)C2Oc1ccccc1` (centres undefined), the GI50 in the assay with MDA-MB-231 was > 100 µM (inactive); in the assay on KM12, > 100 µM (inactive); in the assay with MCF7 it was 18 µM (inactive); with ACHN it was 36 µM (inactive); in the assay on SR, 11.3 µM (inactive); in the assay on DU-145, > 100 µM (inactive). In addition, the GI50 is > 100 µM (inactive) with IGROV-1; 29.3 µM (inactive) with UACC-62; > 100 µM (inactive) in the assay with T47D; 11.7 µM (inactive) in the assay on A549; 17.5 µM (inactive) in the assay on LOX IMVI; > 100 µM (inactive) in the assay on SNB-75. Also, the GI50 is 83.8 µM (inactive) in the assay with 786-0; 27.9 µM (inactive) in the assay on NCI-H23; > 100 µM (inactive) in the assay on OVCAR-4; 12.4 µM (inactive) with M14; > 100 µM (inactive) in the assay with OVCAR-5.
For `OCCOCn1nncc1Cn1ncc2c(O)ncnc21`, the GI50 was > 100 µM (inactive) in the assay with MDA-MB-231; 32.6 µM (inactive) with KM12; 48.8 µM (inactive) in the assay on MCF7; > 100 µM (inactive) in the assay with ACHN; 43.7 µM (inactive) with DU-145; > 100 µM (inactive) in the assay with IGROV-1. Moreover, the GI50 in the assay on UACC-62 was > 100 µM (inactive); with T47D it was > 100 µM (inactive); with SK-OV-3, 71.6 µM (inactive); in the assay with A549, 97.9 µM (inactive); with LOX IMVI it was 74.3 µM (inactive); with SNB-75, > 100 µM (inactive). The GI50 in the assay on 786-0 was 52 µM (inactive); in the assay on NCI-H23, > 100 µM (inactive); in the assay on Hs-578T it was > 100 µM (inactive); with OVCAR-4 it was > 100 µM (inactive); in the assay with M14 it was > 100 µM (inactive); with OVCAR-5, > 100 µM (inactive).
Take `COc1cc2c(/C=C3/C(=O)N(C)c4ccc(O)cc43)c(Cl)[nH]c2cc1C`: the GI50 in the assay on MDA-MB-231 is 0.738 µM (active); in the assay on KM12, 0.356 µM (active); in the assay on MCF7 it was 0.502 µM (active); in the assay with ACHN, 0.532 µM (active); in the assay with SR, 0.133 µM (active); in the assay with DU-145, 0.655 µM (active). Besides, the GI50 in the assay on IGROV-1 is 0.733 µM (active); with UACC-62, 0.281 µM (active); in the assay on T47D it was 3.41 µM (inactive); in the assay with SK-OV-3 it was 0.326 µM (active); in the assay on A549, 0.667 µM (active); in the assay on LOX IMVI, 0.594 µM (active). In addition, the GI50 in the assay on SNB-75 was 0.439 µM (active); with 786-0 it was 0.362 µM (active); in the assay on NCI-H23, 0.329 µM (active); in the assay on Hs-578T, 0.269 µM (active); in the assay on OVCAR-4 it was 1.8 µM (inactive); in the assay on M14 it was 0.238 µM (active). Besides, the GI50 in the assay on OVCAR-5 was 3.79 µM (inactive).
As to `CC(C)(C)OC(=O)NC(CS(=O)(=O)O)C(=O)O` (centres undefined), the GI50 in the assay with MDA-MB-231, in the assay with KM12, in the assay on MCF7, with ACHN, in the assay on SR and in the assay on DU-145 was > 100 µM (inactive) in each case. Also, the GI50 in the assay with IGROV-1, with UACC-62, in the assay with T47D, in the assay on SK-OV-3, in the assay with A549 and with LOX IMVI was > 100 µM (inactive) in each case. The GI50 in the assay on MDA-N, in the assay with SNB-75, with 786-0, in the assay on NCI-H23, in the assay on OVCAR-4 and in the assay on M14 was > 100 µM (inactive) in each case. The GI50 in the assay on OVCAR-5 is > 100 µM (inactive).
Consider `CC1(C)CN(CC(=O)O)CC(Cc2ccc(OCC(=O)O)cc2)N(CC(=O)O)CC(C)(C)SS1` (centres undefined), for which the GI50 in the assay on MDA-MB-231, in the assay with KM12, in the assay on MCF7, in the assay with ACHN, in the assay on DU-145 and with IGROV-1 was > 100 µM (inactive) throughout. Further, the GI50 in the assay on UACC-62, in the assay on SK-OV-3, in the assay on A549, in the assay with LOX IMVI, with MDA-N and in the assay on SNB-75 was > 100 µM (inactive) in each case. For the same compound, the GI50 in the assay with 786-0, in the assay with NCI-H23, in the assay with Hs-578T, in the assay with OVCAR-4, in the assay on M14 and in the assay on OVCAR-5 was > 100 µM (inactive) each time.
Turning to `Cc1cccc(Nc2cnc(N)nc2N)c1`, the GI50 in the assay on MDA-MB-231, with KM12, in the assay on MCF7, in the assay with ACHN, in the assay on DU-145 and in the assay with IGROV-1 was > 100 µM (inactive) throughout. In addition, the GI50 in the assay with UACC-62, with T47D, in the assay on SK-OV-3, in the assay on A549, with LOX IMVI and in the assay on MDA-N was > 100 µM (inactive) throughout. Also, the GI50 with SNB-75 is 83 µM (inactive); in the assay with 786-0, > 100 µM (inactive); in the assay with NCI-H23 it was > 100 µM (inactive); with OVCAR-4, > 100 µM (inactive); in the assay on M14 it was > 100 µM (inactive).
For the compound `COc1ccc(C2CC(c3cc4c(C)c(C(=O)c5ccccc5)oc4cc3O)=Nc3ccccc3S2)cc1OC` (centres undefined), the GI50 in the assay with MDA-MB-231 was > 87.3 µM (inactive); in the assay with MCF7, > 64 µM (inactive); in the assay on ACHN, > 65.8 µM (inactive); with SR it was 52.5 µM (inactive); in the assay on IGROV-1, 55.8 µM (inactive); in the assay on UACC-62, > 51.4 µM (inactive). For the same compound, the GI50 is 96.8 µM (inactive) with A549; > 100 µM (inactive) in the assay with LOX IMVI; > 40.2 µM (inactive) in the assay with MDA-N; 73.6 µM (inactive) in the assay with SNB-75; 47.6 µM (inactive) in the assay with 786-0; 52.7 µM (inactive) with NCI-H23. For the same compound, the results for the GI50 in the assay on Hs-578T, in the assay with M14 and in the assay on OVCAR-5 were 25.8 µM (inactive), > 57.1 µM (inactive) and > 100 µM (inactive), respectively.
`Cc1nc2ccc(F)cc2c(Cl)c1CCCl`: the GI50 in the assay on MDA-MB-231 is 27 µM (inactive); with KM12, 28.1 µM (inactive); in the assay with MCF7, 43.5 µM (inactive); in the assay on ACHN it was 78.7 µM (inactive); with SR it was 19.9 µM (inactive); in the assay on DU-145, 44.8 µM (inactive). For the same compound, the GI50 in the assay on IGROV-1 was 59.8 µM (inactive); in the assay on UACC-62, 27.7 µM (inactive); in the assay on T47D it was 38.6 µM (inactive); with A549, 42.3 µM (inactive); with LOX IMVI it was 25.2 µM (inactive); in the assay with SNB-75 it was 72.6 µM (inactive). The GI50 in the assay on 786-0 was 34.1 µM (inactive); in the assay on NCI-H23, 42.3 µM (inactive); in the assay with Hs-578T, 43.9 µM (inactive); in the assay with OVCAR-4 it was 83.8 µM (inactive).
